According to patent US8952026B2, “PRMT1 inhibitors and uses thereof” (Epizyme, Inc., priority 2013, dated 2015):

biological target: T1, full-length human GST-tagged PRMT1 (Homo sapiens, UniProt Q99873); assay: PRMT1 Biochemical Assay (3H-SAM Flashplate, histone H4 peptide substrate)
T1 construct: GST-tagged PRMT1; made in house; host or cells: High Five insect cells (baculovirus, pFastBacI)
From the text: General Materials. S-adenosylmethionine (SAM), S-adenosylhomocysteine (SAH), bicine, Tween20, dimethylsulfoxide (DMSO), bovine skin gelatin (BSG), and Tris(2-carboxyethyl)phosphine hydrochloride solution (TCEP) were purchased from Sigma-Aldrich at the highest level of purity possible. ^3H-SAM was purchase from American Radiolabeled Chemicals with a specific activity of 80 Ci/mmol. 384-well streptavidin Flashplates were purchased from PerkinElmer.
Protein Expression. Recombinant baculovirus were generated according to Bac-to-Bac kit instructions (Life Technologies). Protein over-expression was accomplished by infecting exponentially growing High Five insect cell culture at 1.5×10^6cell/ml with 1:100 ratio of virus. Infections were carried out at 27° C. for 48 hours, harvested by centrifugation, and stored at −80° C. for purification.
Protein Purification. […] GST-tagged PRMT1 was eluted with 50 mM Tris, 2 mM glutathione, pH 7.8, dialysed in buffer A and concentrated to 1 mg/mL.
General Procedure for PRMT1 Enzyme Assays on Peptide Substrates. The assays were all performed in a buffer consisting of 20 mM Bicine (pH=7.6), 1 mM TCEP, 0.005% BSG, and 0.002% Tween 20, prepared on the day of use. […] DMSO (1 ul) was added to Columns 11, 12, 23, 24, rows A-H for the maximum signal control and 1 ul of SAH, a known product and inhibitor of PRMT1, was added to columns 11, 12, 23, 24, rows I-P for the minimum signal control. A cocktail (40 ul) containing the PRMT1 enzyme was added by Multidrop Combi (Thermo-Fisher). The compounds were allowed to incubate with PRMT1 for 30 min at room temperature, then a cocktail (10 ul) containing SAM and peptide was added to initiate the reaction (final volume=51 ul). […] The assays were stopped by the addition of non-radiolabeled SAM (10 ul) to a final concentration of 300 uM, which dilutes the ^3H-SAM to a level where its incorporation into the peptide substrate is no longer detectable. 50 ul of the reaction in the 384-well polypropylene plate was then transferred to a 384-well Flashplate and the biotinylated peptides were allowed to bind to the streptavidin surface for at least 1 hour before being washed once with 0.1% Tween20 in a Biotek ELx405 plate washer. The plates were then read in a PerkinElmer TopCount plate reader to measure the quantity of ^3H-labeled peptide bound to the Flashplate surface, measured as disintegrations per minute (dpm) or alternatively, referred to as counts per minute (cpm).
Where dpm=disintegrations per minute, cmpd=signal in assay well, and min and max are the respective minimum and maximum signal controls.
Where top and bottom are the normally allowed to float, but may be fixed at 100 or 0 respectively in a 3-parameter fit. The Hill Coefficient normally allowed to float but may also be fixed at 1 in a 3-parameter fit. Y is the % inhibition and X is the compound concentration.

T1 sequence (Q99873 with tags, fused parts or gaps): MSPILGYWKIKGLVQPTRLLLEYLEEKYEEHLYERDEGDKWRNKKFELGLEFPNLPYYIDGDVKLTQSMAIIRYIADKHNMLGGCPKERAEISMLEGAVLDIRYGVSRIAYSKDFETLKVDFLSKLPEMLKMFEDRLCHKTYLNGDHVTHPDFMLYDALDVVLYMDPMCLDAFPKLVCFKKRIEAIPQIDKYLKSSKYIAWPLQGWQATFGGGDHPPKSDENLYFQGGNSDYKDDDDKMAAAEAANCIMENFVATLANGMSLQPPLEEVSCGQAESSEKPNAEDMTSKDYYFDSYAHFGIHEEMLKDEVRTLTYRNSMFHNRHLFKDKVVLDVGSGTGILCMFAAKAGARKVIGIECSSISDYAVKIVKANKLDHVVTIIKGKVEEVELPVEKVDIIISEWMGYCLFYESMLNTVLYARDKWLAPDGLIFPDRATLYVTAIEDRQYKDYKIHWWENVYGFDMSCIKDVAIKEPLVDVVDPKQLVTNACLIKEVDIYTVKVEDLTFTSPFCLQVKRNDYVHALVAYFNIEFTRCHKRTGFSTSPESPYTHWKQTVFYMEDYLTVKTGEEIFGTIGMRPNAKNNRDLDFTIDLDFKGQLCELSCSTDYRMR

Structure (SMILES)	IC50
CNCCN(C)Cc1c[nH]nc1-c1cc(OCCOC)c(Cl)c(C(F)(F)F)c1 [Compound 55]	0.101 to 1 µM
CN(CCN)Cc1c[nH]nc1-c1cc(C(F)(F)F)cc(C(F)(F)F)c1 [Compound 2]	0.101 to 1 µM
CNCCN(C)Cc1n[nH]cc1-c1ccc(OCCOC)c(C(F)(F)F)c1 [Compound 21]	< 0.1 µM
CNCCN(C)Cc1c[nH]nc1-c1cc(OCCc2ccccc2OC)cc(C(F)(F)F)c1 [Compound 50]	< 0.1 µM
CNCCN(C)Cc1n[nH]cc1-c1cc(OCCCOC)cc(C(F)(F)F)c1 [Compound 27]	0.101 to 1 µM
CNCCN(C)Cc1c[nH]nc1-c1cc(OCCCC(=O)OC)cc(C(F)(F)F)c1 [Compound 61]	< 0.1 µM
CNCCN(C)Cc1c[nH]nc1-c1cc(C)c(OCC2CCC2)c(C(F)(F)F)c1 [Compound 58]	< 0.1 µM
CNCCN(C)Cc1n[nH]cc1-c1ccc(OCCC(C)C)c(C(F)(F)F)c1 [Compound 17]	< 0.1 µM
CNCCN(C)Cc1n[nH]cc1-c1cc(OCC(C)C)cc(C(F)(F)F)c1 [Compound 29]	< 0.1 µM
CN(CCN)Cc1n[nH]cc1-c1cc(C(F)(F)F)cc(C(F)(F)F)c1 [Compound 7]	1.01 to 3 µM
CNCCN(C)Cc1c[nH]nc1-c1cc(OCC(F)(F)F)cc(C(F)(F)F)c1 [Compound 60]	< 0.1 µM
CNCCN(C)Cc1c[nH]nc1-c1ccc(OCC(C)C)c(C(F)(F)F)c1 [Compound 10]	< 0.1 µM
CNCCN(C)Cc1n[nH]cc1-c1cc(OCCC(C)C)cc(C(F)(F)F)c1 [Compound 22]	< 0.1 µM
CNCCN(C)Cc1c[nH]nc1-c1ccc(OCCCOC)c(C(F)(F)F)c1 [Compound 13]	< 0.1 µM
CNCCN(C)Cc1c[nH]nc1-c1cc(OCCC(C)C)cc(C(F)(F)F)c1 [Compound 12]	< 0.1 µM
CN(CCN)Cc1c[nH]nc1-c1ccc(Cl)c(C(F)(F)F)c1 [Compound 3]	< 0.1 µM
CNCCN(C)Cc1c[nH]nc1-c1cc(Oc2cccnc2)cc(C(F)(F)F)c1 [Compound 51]	< 0.1 µM
CNCCN(C)Cc1c[nH]nc1-c1ccc(CC(C)C)c(C(F)(F)F)c1 [Compound 34]	< 0.1 µM
CNCCN(C)Cc1c[nH]nc1-c1cc(Oc2ccncc2)cc(C(F)(F)F)c1 [Compound 38]	0.101 to 1 µM
CN(CCN)Cc1n[nH]cc1-c1ccc(Oc2ccccc2)c(C(F)(F)F)c1 [Compound 26]	< 0.1 µM
CNCCN(C)Cc1c[nH]nc1-c1cc(OCC2CCCC2)cc(C(F)(F)F)c1 [Compound 45]	< 0.1 µM
CNCCN(C)Cc1c[nH]nc1-c1cc(OCCOC)cc(C(F)(F)F)c1 [Compound 16]	< 0.1 µM

Structure (SMILES)	IC50
CNCCN(C)Cc1c[nH]nc1-c1cc(OCc2ccccc2)cc(C(F)(F)F)c1 [Compound 37]	< 0.1 µM
CC(C)CCOc1cc(-c2n[nH]cc2CN(C)CCN)cc(C(F)(F)F)c1Cl [Compound 40]	0.101 to 1 µM
CCCOc1ccc(-c2c[nH]nc2CN(C)CCNC)cc1C(F)(F)F [Compound 28]	< 0.1 µM
CNCCN(C)Cc1c[nH]nc1-c1cc(C)c(OC2COC2)c(C(F)(F)F)c1 [Compound 66]	< 0.1 µM
CC(C)Oc1ccc(-c2c[nH]nc2CN(C)CCN)cc1C(F)(F)F [Compound 8]	< 0.1 µM
CNCCN(C)Cc1c[nH]nc1-c1cc(Oc2cncnc2)cc(C(F)(F)F)c1 [Compound 53]	0.101 to 1 µM
CNCCN(C)Cc1c[nH]nc1-c1cc(OCC2CCOCC2)cc(C(F)(F)F)c1 [Compound 46]	< 0.1 µM
CCC(CC)Oc1cc(-c2n[nH]cc2CN(C)CCNC)cc(C(F)(F)F)c1 [Compound 47]	< 0.1 µM
CNCCN(C)Cc1c[nH]nc1-c1cc(Cl)c(OCC2CC2)c(C(F)(F)F)c1 [Compound 41]	< 0.1 µM
CNCCN(C)Cc1c[nH]nc1-c1ccc(OCCOC)c(C(F)(F)F)c1 [Compound 14]	< 0.1 µM
CNCCN(C)Cc1c[nH]nc1-c1cc(OCCCOC)c(Cl)c(C(F)(F)F)c1 [Compound 57]	< 0.1 µM
CNCCN(C)Cc1c[nH]nc1-c1ccc(OCCC(C)C)c(C(F)(F)F)c1 [Compound 9]	< 0.1 µM
CNCCN(C)Cc1c[nH]nc1-c1cc(OCCCC(C)=O)cc(C(F)(F)F)c1 [Compound 49]	< 0.1 µM
CNCCN(C)Cc1c[nH]nc1-c1cc(CCC(C)C)cc(C(F)(F)F)c1 [Compound 62]	< 0.1 µM
CC(C)CCc1cc(-c2n[nH]cc2CN(C)CCN)cc(C(F)(F)F)c1 [Compound 63]	< 0.1 µM
CCCOc1ccc(-c2n[nH]cc2CN(C)CCNC)cc1C(F)(F)F [Compound 11]	< 0.1 µM
CC(C)Oc1ccc(-c2n[nH]cc2CN(C)CCN)cc1C(F)(F)F [Compound 5]	< 0.1 µM
CNCCN(C)Cc1c[nH]nc1-c1cc(C)c(OC2CCOCC2)c(C(F)(F)F)c1 [Compound 59]	< 0.1 µM
CN(CCN)Cc1c[nH]nc1-c1ccc(F)c(C(F)(F)F)c1 [Compound 4]	< 0.1 µM
COCCOc1cc(-c2n[nH]cc2CN(C)CCN)cc(C(F)(F)F)c1Cl [Compound 56]	0.101 to 1 µM
CNCCN(C)Cc1c[nH]nc1-c1cc(Oc2ccccn2)cc(C(F)(F)F)c1 [Compound 52]	< 0.1 µM
CNCCN(C)Cc1c[nH]nc1-c1cc(OCCCOC)cc(C(F)(F)F)c1 [Compound 24]	< 0.1 µM

Structure (SMILES)	IC50
CC(C)Oc1cc(-c2n[nH]cc2CN(C)CCN)cc(C(F)(F)F)c1 [Compound 6]	< 0.1 µM
CCCOc1cc(-c2n[nH]cc2CN(C)CCNC)cc(C(F)(F)F)c1 [Compound 19]	< 0.1 µM
CNCCN(C)Cc1c[nH]nc1-c1cc(Cl)c(OC(C)C)c(C(F)(F)F)c1 [Compound 25]	< 0.1 µM
CNCCN(C)Cc1n[nH]cc1-c1ccc(OCC(C)C)c(C(F)(F)F)c1 [Compound 18]	< 0.1 µM
CCCOc1cc(-c2c[nH]nc2CN(C)CCNC)cc(C(F)(F)F)c1 [Compound 31]	0.101 to 1 µM
CNCCN(C)Cc1n[nH]cc1-c1cc(OCCOC)cc(C(F)(F)F)c1 [Compound 30]	0.101 to 1 µM
CN(CCN)Cc1c[nH]nc1-c1ccc(Oc2ccccc2)c(C(F)(F)F)c1 [Compound 23]	< 0.1 µM
CNCCN(C)Cc1c[nH]nc1-c1cc(OCCOC)c(F)c(C(F)(F)F)c1 [Compound 64]	< 0.1 µM
CNCCN(C)Cc1c[nH]nc1-c1cc(OC2CCCCC2)cc(C(F)(F)F)c1 [Compound 39]	< 0.1 µM
CNCCN(C)Cc1c[nH]nc1-c1cc(C)c(OCC2CCOCC2)c(C(F)(F)F)c1 [Compound 65]	< 0.1 µM
CNCCN(C)Cc1c[nH]nc1-c1cccc(C(F)(F)F)c1 [Compound 1]	0.101 to 1 µM
CNCCN(C)Cc1n[nH]cc1-c1cc(C(O)C(C)C)cc(C(F)(F)F)c1 (stereo not shown) [Compound 32]	1.01 to 3 µM
CNCCN(C)Cc1n[nH]cc1-c1ccc(OCCCOC)c(C(F)(F)F)c1 [Compound 20]	< 0.1 µM
CNCCN(C)Cc1c[nH]nc1-c1cc(Oc2ccccc2)cc(C(F)(F)F)c1 [Compound 36]	< 0.1 µM
CNCCN(C)Cc1c[nH]nc1-c1cc(OCCC(C)C)c(Cl)c(C(F)(F)F)c1 [Compound 54]	0.101 to 1 µM
CNCCN(C)Cc1c[nH]nc1-c1cc(Cl)c(OCC2CCC2)c(C(F)(F)F)c1 [Compound 35]	< 0.1 µM
CNCCN(C)Cc1c[nH]nc1-c1cc(OCCCC(F)(F)F)cc(C(F)(F)F)c1 [Compound 48]	< 0.1 µM
CNCCN(C)Cc1n[nH]cc1-c1cc(Cl)c(OC(C)C)c(C(F)(F)F)c1 [Compound 33]	< 0.1 µM
CNCCN(C)Cc1c[nH]nc1-c1cc(OCC(C)C)cc(C(F)(F)F)c1 [Compound 15]	< 0.1 µM
CNCCN(C)Cc1c[nH]nc1-c1cc(OCC2CCC2)cc(C(F)(F)F)c1 [Compound 44]	< 0.1 µM
